Test results as given in patent publication US20020111360A1, “Quinazoline formulations and therapeutic use thereof” (PARKER HUGHES INSTITUTE, priority 1999, published 2002).
Counter-ions that a name gives are not always drawn. Blank lines part the entries; values can stand above or below the compound they belong to.

How the values were obtained:
[1] = Solubility of WHI-P131 free base and chloride salt in various liquids; type: physicochemical
Description: The solubility of WHI-P131 free base was measured in water, propylene glycol, polyethylene glycols (PEGs), ethanol, and triglycerides. The solubility of WHI-P131 is very poor in water. It was about 35 times more soluble in C8-C10 medium chain triglyceride (Captex 300) than in water. It was much more soluble in ethanol and hydrophilic cosolvents such as propylene glycol and PEGs.
Parallel solubility measurements were also carried out using WHI-P131 chloride salt. […] In contrast, the solubility of WHI-P131 chloride decreased drastically in all other liquids. […] This fact underscores the importance of knowing the solubility profile of both the free base and salt forms of an ionizable compound when making choices of its delivery vehicles.

[2] = Solubilization of WHI-P131 in water-cosolvent mixtures and micellar solutions; type: physicochemical; conditions: for Solubility: aqueous with cosolvent or surfactant or cyclodextrin
Description: To further determine the effect of cosolvents on the solubility behavior of WHI-P131, the solubility of WHI-P131 chloride salt was carried out in binary mixtures of water-cosolvents. Solvents including ethanol, propylene glycol, and PEGs are used in several injectable formulations, and were considered here as possible vehicles for WHI-P131. […] However, at PEG concentrations greater than 70%, there was a large difference between the solubility behavior of WHI-P131 in water-PEG300 and water-PEG200 mixtures. For PEG300, the solubility continued to increase linearly with increasing PEG concentration, whereas for PEG200, a large increase in slopes occurred near 100% PEG200. Since the solubility-PEG300 concentration curve is linear over the entire range of water-PEG300 mixtures, WHI-P131 solubilized in these mixtures at concentrations below its saturation point can be used as vehicles for this compound, since their dilution will not result in drug precipitation. […] Therefore, PEG300 is more appropriate for use as a cosolvent vehicle in the formulations of WHI-P131.
Micellar solutions containing PEGylated phosphatidylethanolamines were exceptionally effective in enhancing the solubilization of WHI-P131. […] Micellar solutions using purified soya lecithin (Phospholipon 90G) were feasible when an equal or higher amount of a nonionic surfactant (such as Cremophor EL for example) was also present. With PEGylated phospholipids, the presence of Cremophor EL was not necessary to form micellar solutions. In addition, an anionic PEGylated phosphatidylethanolamine seemed to be a better solubilizer for WHI-P131 than Phospholipon (mostly phosphotidylcholine). The enhanced solubilization observed with micellar solutions was apparently due to the charge interaction between the cationic WHI-P131 and anionic PEGylated phosphatidylethanolamine.
To determine the solubilization enhancement by different types of surfactants in a more quantitative manner, solubility-surfactant concentration curves were plotted. FIG. 2 depicts the amount of solubilized WHI-P131 chloride in a solution containing 20% of PEG300, and an increasing amount of PEG2000-DPPE. […] At low surfactant concentrations (below the CMC), the drug solubilization seems to remain unchanged, then increases linearily with surfactant concentration at higher PEG2000-DPPE concentration. […] In Table 8, the slopes of the linear portions of the plot for a series of nonionic surfactants and cosolvents were used to calculate the solubilization enhancement per unit surfactant or cosolvent concentration.
The solubilization enhancement, as represented by the amount of solubilized WHI-P131 (in milligram) per gram of surfactant, are shown in Table 8 to vary with the type of surfactants used. For the three PEGylated phosphatidylethanolamines, the solubilization enhancement depended on the hydrophobic chain length and polyoxyethylene number of the PEGylated phospholipids. […] Also shown in Table 8 for comparison purposes are the solubilization enhancements produced by the use of cosolvents.

[3] = Solubilization of WHI-P131 in microemulsions; type: physicochemical; conditions: microemulsion formulation vs free base in water
Description: A series of ternary phase diagrams were constructed at room temperature, and several microemulsions within the single phase microemulsion region were examined for their capacity to solubilize WHI-P131. […] In this phase diagram, it can be seen that microemulsions containing up to 30% of Captex 300 were possible. These microemulsions were transparent and tolerated dilution very well when mixed with aqueous phases. In WHI-P131-containing microemulsions, the drug was first solubilized in the microemulsions chosen from the one phase region of the phase diagram with mild heating, followed by dilution with water or buffer solution at room temperature.
The microemulsion composition ME1 depicted in Table 9 was used in pharmacokinetic studies and biological activity assays. This microemulsion was prepared by first solubilizing WHI-P131 in composition A in the ternary phase diagram, followed by a dilution with water (1:9). […] ME2 was a microemulsion composition obtained from a separate phase diagram not shown. […] These microemulsions can readily be filtered through 0.2 μm filter, and stored at room temperature.

Structure (SMILES): COc1cc2ncnc(Nc3c(Br)cc(C)cc3Br)c2cc1OC [P-241, 4-(2′,6′-Dibromo-4′-methylphenyl)-amino-6,7-dimethoxyquinazoline]
melting point: 235 to 237 °C

Structure (SMILES): COc1cc2ncnc(Nc3cccc(C(C)O)c3)c2cc1OC (stereo not shown) [P-276, 4-[3′-(1″-Hydroxyethyl)]-amino-6,7-dimethoxyquinazoline]
melting point: 215 to 218 °C

Structure (SMILES): COc1cc2ncnc(Nc3c(O)ccc4ccccc34)c2cc1OC (as salt: salt) [P-275, 4-(2′-Naphthol-1)-amino-6,7-dimethoxyquinazoline]
melting point: 218 to 220 °C

Structure (SMILES): COc1cc2ncnc(Nc3ccc(O)c(C(=O)O)c3)c2cc1OC [P-182, 4-(4′-Hydroxyl-3′-Carboxyphenyl)-amino-6,7-dimethoxyquinazoline]
melting point: > 300 °C

Structure (SMILES): COc1cc2ncnc(Nc3ccc(Br)cc3C(=O)O)c2cc1OC [P-88, 4-(4′-Bromo-2′-caboxylphenyl)-amino-6,7-dimethoxyquinazoline]
melting point: > 300 °C

Structure (SMILES): COc1cc2ncnc(Nc3cc(Cl)c(O)c(Cl)c3)c2cc1OC [P-189, 4-(4′-Hydroxyl-3′,5′-dichlorophenyl)amino-6,7-dimethoxyquinazoline]
melting point: 293 to 295 °C

Structure (SMILES): COc1cc2ncnc(Nc3ncccc3O)c2cc1OC [P-150, 4-[(3′-Hydroxylpyridine)-2′]-amino-6,7-dimethoxyquinazoline]
melting point: 185 to 187 °C

Structure (SMILES): COc1cc2ncnc(Nc3ccc(C)c(Br)c3)c2cc1OC (as salt: salt) [P-111, 4-(3′-Bromo-4′-methylphenyl)-amino-6,7-dimethoxyquinazoline]
melting point: 225 to 228 °C

Structure (SMILES): COc1cc2ncnc(Nc3ccccc3Br)c2cc1OC (as salt: salt) [P-261, 4-(2′-Bromophenyl)-amino-6,7-dimethoxyquinazoline]
melting point: 241 to 243 °C

Structure (SMILES): COc1cc2ncnc(Nc3c(Br)cccc3Br)c2cc1OC [P-262, 4-(2′,6′-Dibromophenyl)-amino-6,7-dimethoxyquinazoline]
melting point: 243 to 246 °C

Structure (SMILES): COc1cc2ncnc(Nc3ccc(O)cc3O)c2cc1OC [P-192, 4-(2′,4′-Dihydroxyphenyl)-amino-6,7-dimethoxyquinazoline]
melting point: 240 °C (dec.)

Structure (SMILES): COc1cc2ncnc(Nc3c(F)c(F)c(Br)c(F)c3F)c2cc1OC (as salt: salt) [P-144, 4-(2′,3′,5′,6′-Tetrafluoro-4′-bromolphenyl)-amino-6,7-dime-thoxyquinazoline]
melting point: 180 to 182 °C

More lines, now with the values ahead:

melting point: 228 to 230 °C
Structure (SMILES): COc1cc2ncnc(Nc3cc(F)c(O)c(F)c3)c2cc1OC (as salt: salt) [P-408, 4-(4′-Hydroxyl-3′,5′-difluorophenyl)-amino-6,7-dimethoxy-quinazoline]

melting point: 255 to 257 °C
Structure (SMILES): COc1cc2ncnc(Nc3cc(-c4ccccc4)c(O)c(-c4ccccc4)c3)c2cc1OC [P-277, 4-(4′-Hydroxy-3′,5′-diphenylphenyl)-amino-6,7-dime-hoxyquinazoline]

melting point: 259 to 260 °C
Structure (SMILES): COc1cc2ncnc(Nc3cc(I)c(O)c(I)c3)c2cc1OC (as salt: salt) [P-294, 4-(4′-Hydroxy-3,5-diiodophenyl)-amino-6,7-dimethoxy-quinazoline]

Solubility ([1]; Captex 300): 0.88 ± 0.08 mg/mL
Solubility ([1]; Ethanol): 18.6 ± 0.5 mg/mL
Solubility ([1]; PEG200): >100 mg/mL
Solubility ([1]; PEG300): >185 mg/mL
Solubility ([1]; Propylene glycol): 19.5 ± 0.7 mg/mL
Solubility ([1]; Water): 0.025 mg/mL
Solubility ([1]; ethanol): 1.86%
Solubility ([1]; polyethylene glycols): greater than 10%
Solubility ([1]; propylene glycol): 1.95%
Structure (SMILES): COc1cc2ncnc(Nc3ccc(O)cc3)c2cc1OC [WHI-P131 Free base, 4-(4′-Hydroxylphenyl)-amino-6,7-dimethoxyquinazoline]

melting point: 280 to 282 °C
Structure (SMILES): COc1cc2ncnc(Nc3ccc(C(c4ccc(N)cc4)(C(F)(F)F)C(F)(F)F)cc3)c2cc1OC (as salt: salt) [P-352, 4-{4′-[2″-(4″′-Aminophenyl)-hexafluoropropyl]phenyl}-amino-6,7-dimethoxyquinazoline]

melting point: 240 to 242 °C
Structure (SMILES): COc1cc2ncnc(Nc3ccc(I)cc3)c2cc1OC (as salt: salt) [P-300, 4-(4′-Iodophenyl)-amino-6,7-dimethoxyquinazoline]

Solubility ([1]; Captex 300): 0.012 ± 0.002 mg/mL
Solubility ([1]; Ethanol): 0.631 ± 0.007 mg/mL
Solubility ([1]; PEG200): 25.12 ± 0.72 mg/mL
Solubility ([1]; PEG300): 10.10 ± 3.60 mg/mL
Solubility ([1]; Propylene glycol): 1.61 ± 0.09 mg/mL
Solubility ([1]; Water): 1.24 ± 0.09 mg/mL
Solubility ([1]; Water, listed as WHI-P131 salt): 1.2 mg/mL
Solubility ([2]; 20% PEG300 in water, chloride salt, 20% PEG300, no surfactant, read-out: Solubility in 20% PEG300): 2380 µg/mL
Structure (SMILES): COc1cc2ncnc(Nc3ccc(O)cc3)c2cc1OC [WHI-P131 Chloride salt, 4-(4′-Hydroxylphenyl)-amino-6,7-dimethoxyquinazoline]

Solubility in C8-C10 medium chain triglyceride (Captex 300) relative to water ([1]; Captex 300 vs water): about 35 times
Solubility ([1]; Water): very poor
Total solubilization enhancement [3]: 110 fold
Solubility ([2]; 20% PEG300 plus 3% PEG2000-DPPE micellar solution, chloride salt, 20% PEG300 plus 3% PEG2000-DPPE, read-out: Drug solubilization in cosolvent/micellar vehicle): 4700 µg/mL
Solubilized WHI-P131 (mg) per gram of surfactant or solvent ([2]; PEG200, Cosolvent): 5.3 mg per gram
Solubilized WHI-P131 (mg) per gram of surfactant or solvent ([2]; PEG300, Cosolvent): 5.8 mg per gram
Solubilized WHI-P131 (mg) per gram of surfactant or solvent ([2]; PEG400, Cosolvent): 6.2 mg per gram
Solubilized WHI-P131 (mg) per gram of surfactant or solvent ([2]; PEG2000-PE (14:0), Micellar solution): 76.6 mg per gram
Solubilized WHI-P131 (mg) per gram of surfactant or solvent ([2]; PEG2000-PE (16:0), Micellar solution): 92.0 mg per gram
Solubilized WHI-P131 (mg) per gram of surfactant or solvent ([2]; PEG5000-PE (18:0), Micellar solution): 37.5 mg per gram
Solubilized WHI-P131 (mg) per gram of surfactant or solvent ([2]; Pluronic F-68, Micellar solution): 6.1 mg per gram
Solubility in 20% PEG300 ([2]; chloride salt, 20% PEG300, no surfactant): 2200 µg/mL
Total solubilization enhancement ([2]; cosolvent/micellar solution vs free base in water): 190 fold
Structure (SMILES): COc1cc2ncnc(Nc3ccc(O)cc3)c2cc1OC [WHI-P131, 4-(4′-Hydroxylphenyl)-amino-6,7-dimethoxyquinazoline]

melting point: 270 to 272 °C
Structure (SMILES): COc1cc2ncnc(Nc3cc(C(F)(F)F)cc(C(F)(F)F)c3)c2cc1OC (as salt: salt) [P-366, 4-(3′,5′-Ditrifluoromethylphenyl)-amno-6,7-dimethoxyquinazoline]

melting point: 204 to 205 °C
Structure (SMILES): COc1cc2ncnc(Nc3cccc4c(O)cccc34)c2cc1OC (as salt: salt) [P-293, 4-(1′-Hydroxy-naphthyl-5′)-amino-6,70-dimethoxyquina-zoline]
